Tests used:
[1] = tested on: MPTP-treated squirrel monkeys; experiment: food grasping test in MPTP-treated squirrel monkeys; assay type: in vivo; details: GM1 30 mg/kg/day i.m., investigation end
Description: Tests on squirrel monkeys, which concerned simple motor functions (e.g. capability of grasping food placed in deep containers), were intended to determine the response time and evaluate limb functional use. In particular, monkeys were trained to grasp raisins from a Plexiglas platform accommodating 9.5 mm dia. wells. The time taken to start grasping and the number of raisins grasped in a 6-minute time limit were recorded. All the aforesaid tests were carried out before the first meal of the day.
Normal monkeys started response on sighting the food container.
Normal squirrel monkeys succeeded in grasping 100% food. Soon after MPTP administration, all monkeys were endangered and grasped approx. 15% food. Within the third week of treatment, the monkeys treated with GM1—compared with those treated with saline solution—grasped a higher amount of food. At the investigation end, the former grasped 100% food whereas the latter grasped only 25% food (*p<0.05).

cerebellar granule cells = experiment: TOPA neurotoxicity in cerebellar granule cell cultures, MTT assay; assay type: cell-based; details: for Neuronal survival (%): control = 100%
Description: Granular cell cultures were obtained from 8-day rat cerebella and cultured (3×10^6 cells) on plates coated with poly-L-lysine substrate according to Skaper et al. (Skaper S. D. et al.: “Culture and use of primary and clonal neural cells”, Methods in Neurosciences, Ed. by P. M. Conn, Vol. 2, pp. 17-33, Academic Press, Orlando, 1990).
Twenty-four hours later, cytosine arabinoside (10 μM) was added to inhibit non-neuronal proliferation. Cerebellar granule cells were used 10-12 days later without changing the medium.
Cells were incubated with TOPA either for 40 minutes (100 μM acute exposure) or for 24 h (10 μM prolonged exposure).
Treatment with GM1, AGF2, AGF4 (100 μM) and LIGA 20 (1-30 μm) was carried out as follows:
2-hour pretreatment before acute incubation with TOPA;
cotreatment only with LIGA 20 before acute incubation with TOPA;
pretreatment with/without cotreatment before (100 μM for 2 h) and/or during (100 μM for 24 h) prolonged incubation with TOPA. TOPA cytotoxicity was determined by evaluating cellular survival, and more precisely:
MTT colorimetric assay of cerebellar neurons, as described by Mosmann (Mosmann T.: “Rapid colorimetric assay for cellular growth and survival: application to proliferation and cytotoxicity assays”, J. Immunol. Meth., 65, 55-63, 1983).
Cytotoxicity is expressed as per cent cellular survival.
The results of the two tests (in triplicate) were analysed statistically according to Duncan's test. A brief description of same is reported below:
In FIG. 3 the dose-dependent protective effect of LIGA20 against TOPA-induced death of cultured cerebellar granule cells is represented. Cells were exposed concurrently to 100 μM TOPA and 1-30 μM LIGA20 or 200 μM GM1 in Locke's solution for 45 minutes (24° C.), washed and returned to their original medium. Survival was assessed 24 h later by the MTT method. Means±S.E.M. (n=9, 3 experiments). TOPA ( ), LIGA 20 ( ), GM1 ( ).
In vitro granule cells at the 11th day were incubated as indicated above. In the 40-minute exposure to TOPA, GM1 (100 μM) was used in 2-h pretreatment only. In the […] exposure to TOPA, GM1 (100 μM) was used either in 2-h pretreatment only or in 2-h pretreatment and in cotreatment with TOPA. The values are expressed with reference to the corresponding control cultures (=100%) and are an average (±S.D.) of two determinations, each being carried out in triplicate.

monosialoganglioside [GM1]
response start time in food grasping test ([1]; p<0.002 vs saline solution): started response almost immediately
food per cent amount grasped during the test ([1]; saline solution 25%, normal 100%): 100%
Neuronal survival (%) (cerebellar granule cells; GM1 100 μM 2-h pretreatment and cotreatment, TOPA 10 μM 24-h exposure): 75.4 ± 5.5 (b) %
Neuronal survival (%) (cerebellar granule cells; GM1 100 μM 2-h pretreatment only, TOPA 10 μM 24-h exposure): 57.0 ± 6.5 (a) %
Neuronal survival (%) (cerebellar granule cells; GM1 100 μM 2-h pretreatment only, then TOPA 100 μM 40-minute exposure): 72.4 ± 5.8 (a) %
protection against the acute toxicity of TOPA in cotreatment (cerebellar granule cells; GM1 up to 200 μM, cotreatment with 100 μM TOPA for 45 minutes (FIG. 3)): not active

Reference: patent publication US6620792B1, “Pharmaceutical compositions containing monosialoganglioside GM1 or derivative thereof suitable for the treatment of parkinson's disease” (Fidia S.p.A., priority 1992, dated 2003)
